Experimental data reported in patent publication US6355799B1, “Substituted benzene compounds, process for their preparation, and herbicidal and defoliant compositions containing them” (ISK Americas Incorporated, priority 1997, dated 2002).

What was measured:
Type in all cases: in vivo
[1] = system: redroot pigweed (Amaranthus retroflexus, AMARE); assay: Pre-emerge test, greenhouse herbicide activity screening; conditions: pre-emerge, phytotoxicity rating 0-100 at 14 days after application
How it was run: (§1)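 Visual ratings on a 0-100 scale (0 no damage, 100 all plants dead) were taken at 14 days after treatment. Rates of 15-1000 g ai/ha in acetone, 187 l/ha, were sprayed onto soil one day after planting (pre-emerge) or onto 2-3 leaf plants with 0.25% v/v surfactant (post-emerge).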

[2] = system: barnyardgrass (Echinochloa crus-galli, ECHCG); assay: as above; conditions: pre-emerge, phytotoxicity rating 0-100 at 14 days after application
How it was run: (§2)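 Plants grown in 10 cm pots of sandy loam mix received acetone-dissolved compounds through a moving flat-fan nozzle. Doses ranged from 15 to 1000 g ai/ha. Pre-emerge pots were seeded one day earlier, post-emerge pots 8–21 days earlier. Fourteen days on, each pot was graded 0–100 for damage.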

[3] = system: green foxtail (Setaria viridis, SETVI); assay: as above; conditions: pre-emerge, phytotoxicity rating 0-100 at 14 days after application
How it was run: as §2

[4] = system: ivyleaf morningglory (Ipomoea hederacea, IPOHE); assay: as above; conditions: pre-emerge, phytotoxicity rating 0-100 at 14 days after application
How it was run: as §2

[5] = system: lambsquarters (Chenopodium album, CHEAL); assay: as above; conditions: pre-emerge, phytotoxicity rating 0-100 at 14 days after application
How it was run: as §2

[6] = system: large crabgrass (Digitaria sanguinalis, DIGSA); assay: as above; conditions: pre-emerge, phytotoxicity rating 0-100 at 14 days after application
How it was run: as §2

[7] = system: sicklepod (Cassia obtusifolia, CASOB); assay: as above; conditions: pre-emerge, phytotoxicity rating 0-100 at 14 days after application
How it was run: as §2

[8] = system: velvetleaf (Abutilon theophrasti, ABUTH); assay: as above; conditions: pre-emerge, phytotoxicity rating 0-100 at 14 days after application
How it was run: as §2

[9] = system: field corn (Zea mays L., var. Dekalb 535, CORN); assay: Pre-emerge test, crop safety; conditions: crop damage, pre-emerge, phytotoxicity rating 0-100 at 14 days after application
How it was run: as §1

[10] = system: upland rice (Oryza sp., var. Tebonnet, RICE); assay: Pre-emerge test, crop safety; conditions: crop damage, pre-emerge, phytotoxicity rating 0-100 at 14 days after application
How it was run: as §1

[11] = system: barnyardgrass (Echinochloa crus-galli, ECHCG); assay: Post-emerge test, greenhouse herbicide activity screening; conditions: post-emerge, phytotoxicity rating 0-100 at 14 days after application
How it was run: (§3)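 Rating: 0–100 visual injury, 14 DAA. Application: acetone, 187 l/ha, 15–1000 g ai/ha, flat-fan track sprayer with nozzle 40–45 cm above soil or canopy. Post-emerge runs used 0.25% v/v surfactant on 2–3 leaf plants.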

[12] = system: green foxtail (Setaria viridis, SETVI); assay: as above; conditions: post-emerge, phytotoxicity rating 0-100 at 14 days after application
How it was run: as §3

[13] = system: ivyleaf morningglory (Ipomoea hederacea, IPOHE); assay: as above; conditions: post-emerge, phytotoxicity rating 0-100 at 14 days after application
How it was run: as §3

[14] = system: johnsongrass (Sorghum halepense, SORHA); assay: as above; conditions: post-emerge, phytotoxicity rating 0-100 at 14 days after application
How it was run: as §3

[15] = system: lambsquarters (Chenopodium album, CHEAL); assay: as above; conditions: post-emerge, phytotoxicity rating 0-100 at 14 days after application
How it was run: as §3

[16] = system: large crabgrass (Digitaria sanguinalis, DIGSA); assay: as above; conditions: post-emerge, phytotoxicity rating 0-100 at 14 days after application
How it was run: as §3

[17] = system: redroot pigweed (Amaranthus retroflexus, AMARE); assay: as above; conditions: post-emerge, phytotoxicity rating 0-100 at 14 days after application
How it was run: as §3

[18] = system: sicklepod (Cassia obtusifolia, CASOB); assay: as above; conditions: post-emerge, phytotoxicity rating 0-100 at 14 days after application
How it was run: as §3

[19] = system: velvetleaf (Abutilon theophrasti, ABUTH); assay: as above; conditions: post-emerge, phytotoxicity rating 0-100 at 14 days after application
How it was run: as §3

[20] = system: field corn (Zea mays L., var. Dekalb 535, CORN); assay: Post-emerge test, crop safety; conditions: post-emerge, crop damage rating 0-100 at 14 days after application
How it was run: (§4)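 Each test used a mechanized track sprayer delivering 187 l/ha of acetone solution at 15–1000 g ai/ha. Post-emerge foliage at 2–3 leaves was treated with added 0.25% v/v non-ionic surfactant and bottom-watered only. Injury was assessed on day 14, where 100 means total kill.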

[21] = system: upland rice (Oryza sp., var. Tebonnet, RICE); assay: Post-emerge test, crop safety; conditions: post-emerge, crop damage rating 0-100 at 14 days after application
How it was run: as §4

`Cc1c(Cl)cc(F)c(-n2c(=O)cc(C(F)(F)F)n(C)c2=O)c1NC(=O)SCc1ccccc1` [4-66] was tested, and the “Pre-emerge Herbicidal Activity AMARE” value ([1]; rate 63 g ai/ha) was 100, the “Pre-emerge Herbicidal Activity AMARE” value ([1]; rate 250 g ai/ha) was 100 and the “Pre-emerge Herbicidal Activity ECHCG” value ([2]; rate 63 g ai/ha) was 30. The “Pre-emerge Herbicidal Activity ECHCG” value ([2]; rate 250 g ai/ha) was 90, the “Pre-emerge Herbicidal Activity SETVI” value ([3]; rate 63 g ai/ha) was 70 and the “Pre-emerge Herbicidal Activity SETVI” value ([3]; rate 250 g ai/ha) was 100. The “Pre-emerge Herbicidal Activity IPOHE” value ([4]; rate 63 g ai/ha) was 60, the “Pre-emerge Herbicidal Activity IPOHE” value ([4]; rate 250 g ai/ha) was 90 and the “Pre-emerge Herbicidal Activity CHEAL” value ([5]; rate 63 g ai/ha) was 100. For the same compound, the “Pre-emerge Herbicidal Activity CHEAL” value ([5]; rate 250 g ai/ha) was 100, the “Pre-emerge Herbicidal Activity DIGSA” value ([6]; rate 63 g ai/ha) was 80 and the “Pre-emerge Herbicidal Activity DIGSA” value ([6]; rate 250 g ai/ha) was 100. The “Pre-emerge Herbicidal Activity CASOB” value ([7]; rate 63 g ai/ha) was 30, the “Pre-emerge Herbicidal Activity CASOB” value ([7]; rate 250 g ai/ha) was 70 and the “Pre-emerge Herbicidal Activity ABUTH” value ([8]; rate 63 g ai/ha) was 100. For the same compound, the “Pre-emerge Herbicidal Activity ABUTH” value ([8]; rate 250 g ai/ha) was 100, the “Pre-emerge Herbicidal Activity CORN” value ([9]; rate 63 g ai/ha) was 0 and the “Pre-emerge Herbicidal Activity CORN” value ([9]; rate 250 g ai/ha) was 50. The “Pre-emerge Herbicidal Activity RICE” value ([10]; rate 63 g ai/ha) was 20, the “Pre-emerge Herbicidal Activity RICE” value ([10]; rate 250 g ai/ha) was 65 and the “Post-emerge Herbicidal Activity ECHCG” value ([11]; 63 g ai/ha) was 0. The “Post-emerge Herbicidal Activity ECHCG” value ([11]; 250 g ai/ha) was 40, the “Post-emerge Herbicidal Activity SETVI” value ([12]; 63 g ai/ha) was 10 and the “Post-emerge Herbicidal Activity SETVI” value ([12]; 250 g ai/ha) was 60. The “Post-emerge Herbicidal Activity IPOHE” value ([13]; 63 g ai/ha) was 100, the “Post-emerge Herbicidal Activity IPOHE” value ([13]; 250 g ai/ha) was 100 and the “Post-emerge Herbicidal Activity SORHA” value ([14]; 63 g ai/ha) was 0. For the same compound, the “Post-emerge Herbicidal Activity SORHA” value ([14]; 250 g ai/ha) was 50, the “Post-emerge Herbicidal Activity CHEAL” value ([15]; 63 g ai/ha) was 80 and the “Post-emerge Herbicidal Activity CHEAL” value ([15]; 250 g ai/ha) was 100. For the same compound, the “Post-emerge Herbicidal Activity DIGSA” value ([16]; 63 g ai/ha) was 10, the “Post-emerge Herbicidal Activity DIGSA” value ([16]; 250 g ai/ha) was 50 and the “Post-emerge Herbicidal Activity AMARE” value ([17]; 63 g ai/ha) was 80. For the same compound, the “Post-emerge Herbicidal Activity AMARE” value ([17]; 250 g ai/ha) was 100, the “Post-emerge Herbicidal Activity CASOB” value ([18]; 63 g ai/ha) was 20 and the “Post-emerge Herbicidal Activity CASOB” value ([18]; 250 g ai/ha) was 90. The “Post-emerge Herbicidal Activity ABUTH” value ([19]; 63 g ai/ha) was 100, the “Post-emerge Herbicidal Activity ABUTH” value ([19]; 250 g ai/ha) was 100 and the “Post-emerge Herbicidal Activity CORN” value ([20]; 63 g ai/ha) was 15. The “Post-emerge Herbicidal Activity CORN” value ([20]; 250 g ai/ha) was 60, the “Post-emerge Herbicidal Activity RICE” value ([21]; 63 g ai/ha) was 30 and the “Post-emerge Herbicidal Activity RICE” value ([21]; 250 g ai/ha) was 70.
For `COc1cccc(COC(=O)Nc2c(C)c(Cl)cc(F)c2-n2c(=O)cc(C(F)(F)F)n(C)c2=O)c1` [4-65], the “Pre-emerge Herbicidal Activity AMARE” value ([1]; rate 63 g ai/ha) was 100, the “Pre-emerge Herbicidal Activity AMARE” value ([1]; rate 250 g ai/ha) was 100 and the “Pre-emerge Herbicidal Activity ECHCG” value ([2]; rate 63 g ai/ha) was 80. For the same compound, the “Pre-emerge Herbicidal Activity ECHCG” value ([2]; rate 250 g ai/ha) was 90, the “Pre-emerge Herbicidal Activity SETVI” value ([3]; rate 63 g ai/ha) was 100 and the “Pre-emerge Herbicidal Activity SETVI” value ([3]; rate 250 g ai/ha) was 100. The “Pre-emerge Herbicidal Activity IPOHE” value ([4]; rate 63 g ai/ha) was 90, the “Pre-emerge Herbicidal Activity IPOHE” value ([4]; rate 250 g ai/ha) was 100 and the “Pre-emerge Herbicidal Activity CHEAL” value ([5]; rate 63 g ai/ha) was 100. For the same compound, the “Pre-emerge Herbicidal Activity CHEAL” value ([5]; rate 250 g ai/ha) was 100, the “Pre-emerge Herbicidal Activity DIGSA” value ([6]; rate 63 g ai/ha) was 100 and the “Pre-emerge Herbicidal Activity DIGSA” value ([6]; rate 250 g ai/ha) was 100. For the same compound, the “Pre-emerge Herbicidal Activity CASOB” value ([7]; rate 63 g ai/ha) was 80, the “Pre-emerge Herbicidal Activity CASOB” value ([7]; rate 250 g ai/ha) was 90 and the “Pre-emerge Herbicidal Activity ABUTH” value ([8]; rate 63 g ai/ha) was 100. For the same compound, the “Pre-emerge Herbicidal Activity ABUTH” value ([8]; rate 250 g ai/ha) was 100, the “Pre-emerge Herbicidal Activity CORN” value ([9]; rate 63 g ai/ha) was 55 and the “Pre-emerge Herbicidal Activity CORN” value ([9]; rate 250 g ai/ha) was 75. For the same compound, the “Pre-emerge Herbicidal Activity RICE” value ([10]; rate 63 g ai/ha) was 65, the “Pre-emerge Herbicidal Activity RICE” value ([10]; rate 250 g ai/ha) was 90 and the “Post-emerge Herbicidal Activity ECHCG” value ([11]; 63 g ai/ha) was 60. The “Post-emerge Herbicidal Activity ECHCG” value ([11]; 250 g ai/ha) was 70, the “Post-emerge Herbicidal Activity SETVI” value ([12]; 63 g ai/ha) was 100 and the “Post-emerge Herbicidal Activity SETVI” value ([12]; 250 g ai/ha) was 100. The “Post-emerge Herbicidal Activity IPOHE” value ([13]; 63 g ai/ha) was 100, the “Post-emerge Herbicidal Activity IPOHE” value ([13]; 250 g ai/ha) was 100 and the “Post-emerge Herbicidal Activity SORHA” value ([14]; 63 g ai/ha) was 70. For the same compound, the “Post-emerge Herbicidal Activity SORHA” value ([14]; 250 g ai/ha) was 80, the “Post-emerge Herbicidal Activity CHEAL” value ([15]; 63 g ai/ha) was 100 and the “Post-emerge Herbicidal Activity CHEAL” value ([15]; 250 g ai/ha) was 100. The “Post-emerge Herbicidal Activity DIGSA” value ([16]; 63 g ai/ha) was 60, the “Post-emerge Herbicidal Activity DIGSA” value ([16]; 250 g ai/ha) was 80 and the “Post-emerge Herbicidal Activity AMARE” value ([17]; 63 g ai/ha) was 100. For the same compound, the “Post-emerge Herbicidal Activity AMARE” value ([17]; 250 g ai/ha) was 100, the “Post-emerge Herbicidal Activity CASOB” value ([18]; 63 g ai/ha) was 100 and the “Post-emerge Herbicidal Activity CASOB” value ([18]; 250 g ai/ha) was 100. The “Post-emerge Herbicidal Activity ABUTH” value ([19]; 63 g ai/ha) was 100, the “Post-emerge Herbicidal Activity ABUTH” value ([19]; 250 g ai/ha) was 100 and the “Post-emerge Herbicidal Activity CORN” value ([20]; 63 g ai/ha) was 80. The “Post-emerge Herbicidal Activity CORN” value ([20]; 250 g ai/ha) was 90, the “Post-emerge Herbicidal Activity RICE” value ([21]; 63 g ai/ha) was 70 and the “Post-emerge Herbicidal Activity RICE” value ([21]; 250 g ai/ha) was 80.
